Data as given in patent US8957026B2, “Beta-catenin targeting peptides and uses thereof” (President and Fellows of Harvard College, priority 2010, dated 2015).
“Also recorded” adds a separate entry of the source. Positions of bridges follow the written chain, without caps; N, C: chain ends. Non-standard residues stand in square brackets, D forms with d. Residues, ends and D or L forms follow the SMILES beside them. *: point of attachment. FITC = O=C1OC2(c3ccc(O)cc3Oc3cc(O)ccc32)c2ccc(NC(=S)*)cc21; S5 = C=CCCC[C@](C)(N)C(=O)O; βAla = NCCC(=O)O

Assays:
[1] = molecular target: T1, N-terminally GST-tagged human β-catenin (Homo sapiens, UniProt P35222); test: Fluorescence polarization assay with FITC-labeled peptides and GST-tagged β-catenin; assay type: binding; conditions: for increase in binding affinity to β-catenin compared to the wild type sequence (ax-WT): versus Axin wild type peptide
T1 sequence (P35222 1-781): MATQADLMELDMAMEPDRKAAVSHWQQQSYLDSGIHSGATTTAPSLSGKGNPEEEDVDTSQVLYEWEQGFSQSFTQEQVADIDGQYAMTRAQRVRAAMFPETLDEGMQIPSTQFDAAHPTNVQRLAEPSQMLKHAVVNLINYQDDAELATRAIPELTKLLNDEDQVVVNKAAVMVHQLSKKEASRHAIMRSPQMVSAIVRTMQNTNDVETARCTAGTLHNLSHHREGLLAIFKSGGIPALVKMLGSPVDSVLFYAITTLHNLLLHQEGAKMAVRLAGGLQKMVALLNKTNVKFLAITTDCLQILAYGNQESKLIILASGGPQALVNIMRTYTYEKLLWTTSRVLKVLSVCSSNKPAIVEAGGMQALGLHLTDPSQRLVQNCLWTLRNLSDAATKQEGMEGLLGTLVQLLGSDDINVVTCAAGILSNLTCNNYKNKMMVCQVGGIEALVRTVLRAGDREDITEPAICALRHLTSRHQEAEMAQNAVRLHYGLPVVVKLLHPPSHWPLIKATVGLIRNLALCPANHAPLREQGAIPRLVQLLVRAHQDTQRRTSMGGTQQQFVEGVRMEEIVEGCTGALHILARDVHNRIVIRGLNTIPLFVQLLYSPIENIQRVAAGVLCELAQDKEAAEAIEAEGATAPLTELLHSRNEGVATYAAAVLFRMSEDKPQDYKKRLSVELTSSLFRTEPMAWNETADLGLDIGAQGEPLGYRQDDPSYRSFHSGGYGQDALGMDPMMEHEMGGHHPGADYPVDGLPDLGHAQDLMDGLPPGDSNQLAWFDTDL
Source text: FIG. 4 depicts (a) superimposed crystal structures of TCF4 (PDB ID: 2GL7)[14] and Axin (PDB ID: 1QZ7)[15] bound to β-catenin; (b) sequences of modified peptides with NCBI accession and covered amino acids (* amino acids 29-37 were replaced by two βAla); (c) fluorescence polarization assays using FITC-labeled peptides and N-terminally GST-tagged human β-catenin (with corresponding Kds).
FIG. 7 depicts (a) fluorescently labeled peptide sequences resulting from phage display affinity optimization (entries 1, 4 and 17/18 in FIG. 6b); (b) fluorescence polarization assay with fluorescently labeled peptides and N-terminally GST-tagged human β-catenin (with corresponding Kds).
Peptide sequences derived from TCF4 and Axin were synthesized and fluorescently labeled (FIG. 4b) and the affinity of both binding domains to β-catenin was assessed. […] Therefore, the Axin derivative was considered to be the most promising candidate for the hydrocarbon stapling approach. It combines a relatively short and helical peptide sequence (15 amino acids) with moderate binding of β-catenin (Kd of ˜5 μM).

SW480 cells = test: Cell penetration assay monitoring fluorescence of FITC-labeled peptides; assay type: cell-based; conditions: 10 μM peptide in 10% serum, 24 h, confocal microscope
Experimental: Besides its affinity to β-catenin it is cell permeability that impacts the capability of a peptide to interfere with the intracellular target. Therefore, the ability to penetrate cells was tested by monitoring fluorescence of the fluorescein(FITC)-labeled peptides.

[2] = Circular dichroism spectra with calculated helicities; assay type: physicochemical
Source text: Based on the crystal structure of the Axin/β-catenin complex there are four residues (yellow, FIG. 5a) that are not involved in β-catenin binding[15] and should be suitable for modification without affecting binding. Taking into consideration that only i,i+4 (one helix turn) and i,i+7 5 (two helix turns) positioning of modified residues allows sufficient cross-linking[8] three hydrocarbon stapled sequences (STAX-1, 2 and 3, FIG. 5b) were designed. Circular dichroism spectra of the fluorescently labeled peptides were recorded allowing the calculation of helicities (FIG. 5c). […] Therefore, STAX-3 was chosen as starting point for further optimizations.

[3] = system: Wnt-dependent luciferase reporter; test: Dual-luciferase Wnt-dependent reporter gene assay; assay type: cell-based; conditions: firefly signal normalized to Renilla luciferase control
Experimental: FIG. 10 depicts (a) stapled peptide sequences with corresponding Kd to β-catenin (blue boxes mark mutations meant to disrupt binding to (β-catenin, charges at pH 7.5 are calculated values); (b) inhibition of a Wnt-dependent luciferase reporter (dual-luciferase assay: signal was normalized to Renilla luciferase control); (c) dose-dependent effect of STAX-147 and STAX-160 in the dual-luciferase assay.
The cell penetrating stapled peptides were tested for their effects on transcriptional activity using an established reporter gene assay. In this dual-luciferase assay firefly luciferase is transcriptionally regulated by constitutively activated Wnt signaling. The firefly signal is normalized to the Renilla luciferase control.

Structure (SMILES) | change of affinity to β-catenin (in words) ([1]; compared to wild type or parent peptide) | increase in binding affinity to β-catenin compared to the wild type sequence (ax-WT) [1] | cell permeability (SW480 cells) | helicity ([2]; calculated from circular dichroism spectra of the fluorescently labeled peptide) | change of helicity (in words) ([2]; compared to the wild type sequence (ax-WT)) | increase in helicity compared to the wild type sequence (ax-WT) ([2]; versus ax-WT) | increase in binding affinity to β-catenin upon sequence modification ([1]; versus the preceding stapled peptide of the optimization series) | effect on Wnt-dependent luciferase reporter activity [3]
CC[C@H](C)[C@@H]1NC(=O)[C@@](C)(NC(=O)[C@H](CCC(=O)O)NC(=O)[C@@H]2CCCN2C(=O)[C@H](CC(N)=O)NC(=O)[C@H](CCC(=O)O)NC(=O)CCNC(=S)Nc2ccc3c(c2)C(=O)OC32c3ccc(O)cc3Oc3cc(O)ccc32)CCCC=CCCC[C@@](C)(C(=O)N[C@@H](Cc2c[nH]cn2)C(=O)N[C@H](C(=O)N[C@@H](CCC(N)=O)C(=O)N[C@@H](CCCNC(=N)N)C(=O)N[C@H](C(=O)N[C@@H](CCSC)C(N)=O)C(C)C)C(C)C)NC(=O)[C@H](CC(=O)O)NC(=O)[C@H](CC(C)C)NC1=O [STAX-3] ({FITC-βAla}-ENPE[S5]ILD[S5]HVQRVM-NH2; staple 5-9) | increased | 80 fold | non cell permeable | 51% | increased | 3.4 fold | – | –
CC[C@H](C)[C@H](NC(=O)[C@H](CO)NC(=O)[C@H](CCC(=O)O)NC(=O)[C@@H]1CCCN1C(=O)[C@H](Cc1c[nH]c2ccccc12)NC(=O)[C@H](CCCNC(=N)N)NC(=O)CCNC(=S)Nc1ccc2c(c1)C(=O)OC21c2ccc(O)cc2Oc2cc(O)ccc21)C(=O)N[C@@H](CC(C)C)C(=O)N[C@@H](CC(=O)O)C(=O)N[C@@H](CCC(=O)O)C(=O)N[C@@H](Cc1c[nH]cn1)C(=O)N[C@@H](Cc1c[nH]c2ccccc12)C(=O)N[C@@H](CCC(=O)O)C(=O)N[C@@H](CCCNC(=N)N)C(=O)N[C@H](C(=O)N[C@@H](CCSC)C(=O)N[C@@H](CCCNC(=N)N)C(N)=O)C(C)C [phage-01] ({FITC-βAla}-RWPESILDEHWERVMR-NH2) | – | 39 fold | – | – | – | – | – | –
CC[C@H](C)[C@@H]1NC(=O)[C@@](C)(NC(=O)[C@H](CCC(N)=O)NC(=O)[C@@H]2CCCN2C(=O)[C@H](Cc2c[nH]c3ccccc23)NC(=O)[C@H](CCCNC(=N)N)NC(=O)COCCOCCNC(=S)Nc2ccc3c(c2)C(=O)OC32c3ccc(O)cc3Oc3cc(O)ccc32)CCCC=CCCC[C@@](C)(C(=O)N[C@@H](Cc2c[nH]cn2)C(=O)N[C@H](C(=O)N[C@@H](CCCNC(=N)N)C(=O)N[C@@H](CCCNC(=N)N)C(=O)N[C@H](C(=O)N[C@@H](Cc2c[nH]c3ccccc23)C(=O)N[C@@H](CCCNC(=N)N)C(N)=O)C(C)C)C(C)C)NC(=O)[C@H](CC(=O)O)NC(=O)[C@H](CC(C)C)NC1=O [STAX-090] | – | more than 600 fold | increased further; also recorded: good permeability | – | – | – | two fold increase | repression of luciferase activity
CC[C@H](C)[C@H](NC(=O)[C@H](CO)NC(=O)[C@H](CCC(=O)O)NC(=O)[C@@H]1CCCN1C(=O)[C@H](CC(N)=O)NC(=O)[C@H](CCC(=O)O)NC(=O)CCNC(=S)Nc1ccc2c(c1)C(=O)OC21c2ccc(O)cc2Oc2cc(O)ccc21)C(=O)N[C@@H](CC(C)C)C(=O)N[C@@H](CC(=O)O)C(=O)N[C@@H](CCC(=O)O)C(=O)N[C@@H](Cc1c[nH]cn1)C(=O)N[C@H](C(=O)N[C@@H](CCC(N)=O)C(=O)N[C@@H](CCCNC(=N)N)C(=O)N[C@H](C(=O)N[C@@H](Cc1c[nH]c2ccccc12)C(=O)N[C@@H](CCCNC(=N)N)C(N)=O)C(C)C)C(C)C [phage-17/18] ({FITC-βAla}-ENPESILDEHVQRVWR-NH2) | – | 8 fold | – | – | – | – | – | –
